For 28 compounds, melting point results are on record in patent publication US6911477B2, “Muscarinic receptor agonists” (Pfizer Inc., priority 1996, dated 2005).

Structures can show the parent of a compound that is named as a salt.

One may read the melting point as the temperature, or range, at which the solid turns liquid.

`Cc1cccc(C)c1C(=Nc1ccc(F)cc1)NC(=Nc1ccccc1)N1CCCCCC1` (as salt: hydrochloride) [Example 53, N-(azepan-1-yl-phenylimino-methyl)-N′-(4-fluoro-phenyl)-2,6-dimethyl-benzamidine] returned a melting point of 243 to 245 °C.
In the case of `C(=C(Nc1ccccc1)c1ccccc1)C(=Nc1ccccc1)N1CCCC1` (as salt: nitrate) [Example 87, (3-phenylimino-3-pyrrolidin-1-yl-1-phenyl-propenyl)-phenylamine] it was 184 to 186 °C; in that of `c1ccc(N=C(NC(=Nc2ccccc2)N2CCCCCC2)c2ccccc2)cc1` (as salt: hydroiodid) [Example 17, N-(azepan-1-yl-phenylimino-methyl)-N′-phenyl-benzamidine], 228 to 229 °C; in that of `Cc1cccc(C)c1C(=NC(=Nc1ccccc1)N1CCC(O)CC1C)Nc1ccc(F)cc1` (stereo not shown) (as salt: hydrochloride) [Example 72, N-(4-fluoro-phenyl)-N′-[(4-hydroxy-2-methyl-piperidin-1-yl)-phenylimino-methyl]-2,6-dimethyl-benzamidine], 163 to 166 °C (dec.).
On to `Cc1cccc(C)c1C(=NC(=Nc1ccccc1)N1CCOCC1)Nc1ccc(F)cc1` (as salt: hydrochloride) [Example 76, N-(4-fluoro-phenyl)-2,6-dimethyl-N′-(morpholin-4-yl-phenylimino-methyl)-benzamidine], for which the melting point is 249 to 251 °C (dec.).
Compound `Cc1ccccc1C(=NC(=Nc1ccccc1)N1CCCC1)Nc1ccccc1` (as salt: hydrochloride) [Example 20, 2-methyl-N-phenyl-N′-(phenylimino-pyrrolidin-1-yl-methyl)-benzamidine] displayed a melting point of 191 to 192 °C.
In the case of `Cc1ccccc1C(=Nc1ccccc1)NC(=Nc1ccccc1)N1CCC(O)CC1` (as salt: hydrochloride) [Example 24, N-[(4-hydroxy-piperidin-1-yl)-phenylimino-methyl]-2-methyl-N′-phenyl-benzamidine], the melting point was 218 to 220 °C.
In the case of `Cc1cccc(C)c1C(=Nc1ccc(F)cc1)NC(=Nc1ccccc1)N1CCCCC1C` (stereo not shown) (as salt: hydrochloride) [Example 35, N-[(2,6-dimethyl-phenyl)-(4-fluoro-phenylimino)-methyl]-2-methyl-N′-phenyl-piperidine-1-carboxamidine] it was 181 to 183 °C.
In the case of `Fc1ccccc1C(=Nc1ccccc1)NC(=Nc1ccccc1)N1CCCC1` (as salt: nitrate) [Example 39, N-[(2-fluoro-phenyl)-phenylimino-methyl]-N′-phenyl-pyrrolidine-1-carboxamidine], the melting point lay in the range of 194 to 196 °C.
Take `Cc1ccccc1C(=NC(=Nc1ccccc1F)N1CCC(O)CC1)Nc1ccc(F)cc1` (as salt: hydrochloride) [Example 36, N-(4-fluoro-phenyl)-N′-[(2-fluoro-phenylimino)-(4-hydroxy-piperidin-1-yl)-methyl]-2-methyl-benzamidine]: the melting point was in the range of 174 to 175 °C.
On to `Cc1ccccc1C(=Nc1ccc(F)cc1)NC(=Nc1ccccc1Cl)N1CCCCC1C` (stereo not shown) (as salt: hydrochloride) [Example 79, N-[(2-chloro-phenylimino)-(2-methyl-piperidin-1-yl)-methyl]-N′-(4-fluoro-phenyl)-2-methyl-benzamidine], for which the melting point lay within 208 to 210 °C.
In turn, `Cc1cccc(C)c1C(=NC(=Nc1ccc(F)cc1)N1CCCCO1)Nc1ccc(F)cc1` (as salt: hydrochloride) [Example 50, N-(4-fluoro-phenyl)-N′-[(4-fluoro-phenylimino)-[1,2]oxazinan-2-yl-methyl]-2,6-dimethyl-benzamidine] displayed a melting point of 213 to 214 °C.
Compound `Fc1ccccc1N=C(NC(=Nc1ccccc1)c1ccccc1)N1CCCC1` (as salt: hydrochloride) [Example 27, N-[(2-fluoro-phenylimino)-pyrrolidin-1-yl-methyl]-N′-phenyl-benzamidine] gave a melting point of 254 to 255 °C.
To `Cc1ccccc1C(=NC(=Nc1ccccc1)N1CCC(=O)CC1C)Nc1ccc(F)cc1` (stereo not shown) (as salt: hydrochloride) [Example 69, N-(4-fluoro-phenyl)-2-methyl-N′-[(2-methyl-4-oxo-piperidin-1-yl)-phenylimino-methyl]-benzamidine] belongs more than 143 °C.
`Cc1ccccc1N=C(N=C(Nc1ccc(F)cc1)c1c(C)cccc1C)N1CCCCC1C` (stereo not shown) (as salt: hydrochloride) [Example 84, N-(4-fluoro-phenyl)-2,6-dimethyl-N′-[(2-methyl-piperidin-1-yl)-o-tolylimino-methyl]-benzamidine] displayed a melting point of 206 to 208 °C.
On to `CCC(C)N=C(NC(=Nc1ccc(F)cc1)c1c(C)cccc1C)N1CCCCC1C` (stereo not shown) (as salt: hydrochloride) [Example 98, N-[sec-butylimino-(2-methyl-piperidin-1-yl)-methyl]-N′-(4-fluoro-phenyl)-2,6-dimethyl-benzamidine], for which the melting point was 168 to 170 °C (dec.).
`Cc1cccc(C)c1C(=NC(=Nc1ccc(F)cc1)N1CCCCC1C)Nc1ccc(F)cc1` (stereo not shown) (as salt: hydrochloride) [Example 43, N-(4-fluoro-phenyl)-N′-[(4-fluoro-phenylimino)-(2-methyl-piperidin-1-yl)-methyl]-2,6-dimethyl-benzamidine]: the melting point was 162 to 164 °C (dec.).
With `Cc1cccc(C)c1C(=Nc1ccc(F)cc1)NC(=Nc1ccc(Cl)cc1)N1CCCCC1C` (stereo not shown) (as salt: hydrochloride) [Example 46, N-[(4-chloro-phenylimino)-(2-methyl-piperidin-1-yl)-methyl]-N′-(4-fluoro-phenyl)-2,6-dimethyl-benzamidine], the melting point was 149 to 151 °C (dec.).
Consider `CC1CCCCN1C(N=C(Nc1ccc(F)cc1)c1c(Cl)cccc1Cl)=Nc1ccccc1` (stereo not shown) (as salt: hydrochloride) [Example 45, 2,6-dichloro-N-(4-fluoro-phenyl)-N′-[(2-methyl-piperidin-1-yl)-phenylimino-methyl]-benzamidine], for which the melting point is 153 to 155 °C (dec.).
Compound `Cc1cccc(C)c1C(=Nc1ccc(F)cc1)NC(=Nc1ccc(N)cc1)N1CCCCC1C` (stereo not shown) (as salt: hydrochloride) [Example 64, N-[(4-amino-phenylimino)-(2-methyl-piperidin-1-yl)-methyl]-N′-(4-fluoro-phenyl)-2,6-dimethyl-benzamidine] came in with a melting point of 179 to 181 °C.
In turn, `Fc1ccc(N=C(NC(=Nc2ccccc2)N2CCCCCC2)c2c(F)cccc2F)cc1` (as salt: nitrate) [Example 56, N-(azepan-1-yl-phenylimino-methyl)-2,6-difluoro-N′-(4-fluoro-phenyl)-benzamidine] gave a melting point of 171 to 173 °C.
For `CC1CCCCN1C(N=C(Nc1ccc(F)cc1)c1c(F)cccc1F)=Nc1ccccc1` (stereo not shown) (as salt: nitrate) [Example 44, 2,6-difluoro-N-(4-fluoro-phenyl)-N′-[(2-methyl-piperidin-1-yl)-phenylimino-methyl]-benzamidine], the melting point was 163 to 165 °C (dec.).
In turn, `COc1ccc(NC(=NC(=Nc2ccccc2)N2CCCCO2)c2c(C)cccc2C)cc1` (as salt: hydrochloride) [Example 67, N-(4-methoxy-phenyl)-2,6-dimethyl-N′-([1,2]oxazinan-2-yl-phenylimino-methyl)-benzamidine] returned a melting point of 214 to 215 °C.
For the compound `CC1CCCN(C(=Nc2ccccc2)NC(=Nc2ccccc2)c2ccccc2)C1` (stereo not shown) (as salt: hydroiodid) [Example 23, N-[(3-methyl-piperidin-1-yl)-phenylimino-methyl]-N′-phenyl-benzamidine], the melting point is 179 to 182 °C (dec.).
`Cc1cccc(C)c1C(=NC(=Nc1ccccc1)N1CCC(O)CC1)Nc1ccc(F)cc1` (as salt: hydrochloride) [Example 9, N-(4-Fluoro-phenyl)N′-[(4-hydroxy-piperidin-1-yl)-phenylimino-methyl]-2,6-dimethyl-benzamidine] registered a melting point of 163 to 165 °C.
`Cc1ccccc1C(=NC(=Nc1ccccc1)N1CCCCO1)Nc1ccc(F)cc1` (as salt: hydrochloride) [Example 42, N-(4-fluoro-phenyl)-2-methyl-N′-([1,2]oxazinan-2-yl-phenylimino-methyl)-benzamidine]: the melting point is 199 to 200 °C (dec.).
Consider `Cc1ccccc1C(=Nc1ccc(F)cc1)NC(=NC1CCCCC1)N1CCCCC1C` (stereo not shown) (as salt: hydrochloride) [Example 97, N-[cyclohexylimino-(2-methyl-piperidin-1-yl)-methyl]-N′-(4-fluoro-phenyl)-2-methyl-benzamidine], for which the melting point is > 160 °C (dec.).
To `Cc1ccccc1C(=CC(=NC1CCCCC1)N1CCCCC1C)Nc1ccc(F)cc1` (stereo not shown) (as salt: hydrochloride) [Example 100, [3-cyclohexylimino-3-(2-methyl-piperidin-1-yl)-1-o-tolyl-propenyl]-(4-fluoro-phenyl)-amine] belongs > 125 °C (dec.).
